According to patent US10414740B2, “Glutaminase inhibitors and method of use” (Agios Pharmaceuticals, Inc., priority 2012, dated 2019):

biological target: T1, glutaminase (GAC) (Homo sapiens, UniProt O94925); test: glutaminase coupled endpoint assay (Example A); type: biochemical; conditions: inhibition of glutaminase; IC50 tested in an assay of Example A or Example B
T1 sequence (O94925 55-598 isoform O94925-3 limits assumed): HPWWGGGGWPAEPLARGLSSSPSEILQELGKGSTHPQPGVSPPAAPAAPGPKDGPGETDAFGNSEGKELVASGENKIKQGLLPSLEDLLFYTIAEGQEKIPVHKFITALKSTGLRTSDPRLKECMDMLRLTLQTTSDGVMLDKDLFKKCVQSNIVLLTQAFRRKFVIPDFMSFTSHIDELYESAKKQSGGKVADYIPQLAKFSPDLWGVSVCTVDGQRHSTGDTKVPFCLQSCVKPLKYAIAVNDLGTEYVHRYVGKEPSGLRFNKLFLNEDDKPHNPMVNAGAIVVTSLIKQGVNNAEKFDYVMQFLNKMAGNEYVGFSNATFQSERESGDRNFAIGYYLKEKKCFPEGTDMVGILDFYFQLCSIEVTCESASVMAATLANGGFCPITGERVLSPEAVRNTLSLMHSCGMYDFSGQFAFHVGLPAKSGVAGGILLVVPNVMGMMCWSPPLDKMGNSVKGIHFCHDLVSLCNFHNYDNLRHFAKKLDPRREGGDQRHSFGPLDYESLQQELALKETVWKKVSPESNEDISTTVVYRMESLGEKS
How it was run: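 Coupled endpoint read-out: glutamate from GAC is converted by excess GDH, and diaphorase recycles NADH to NAD while reducing resazurin to fluorescent resorufin, so loss of signal means inhibition. Compound in DMSO is preincubated with enzyme for 60 min at room temperature before substrate is added. Hits are counterscreened against GDH/diaphorase alone.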

IC50 [nM] | SMILES
< 100 | O=C(Cc1noc2ccccc12)Nc1nnc(CCCCc2nnc(NC(=O)Cc3noc4ccccc34)s2)s1 [Compound 60, N,N′-(5,5′-(butane-1,4-diyl)bis(1,3,4-thiadiazole-5,2-diyl))bis(2-(benzo[d]isoxazol-3-yl)acetamide)]
100 to 500 | O=C(Nc1nnc(CCCCc2nnc(NC(=O)c3cccc4ccccc34)s2)s1)c1cccc2ccccc12 [Compound 85, N,N′-(5,5′-(butane-1,4-diyl)bis(1,3,4-thiadiazole-5,2-diyl))di-1-naphthamide]
100 to 500 | CC(C(=O)Nc1nnc(CCCCc2nnc(NC(=O)C(C)c3ccc(N4Cc5ccccc5C4=O)cc3)s2)s1)c1ccc(N2Cc3ccccc3C2=O)cc1 (centres unmarked) [Compound 50, N,N′-(5,5′-(butane-1,4-diyl)bis(1,3,4-thiadiazole-5,2-diyl))bis(2-(4-(1-oxoisoindolin-2-yl)phenyl)propanamide)]
100 to 500 | COc1cccc(CCC(=O)Nc2nnc(CCCCc3nnc(NC(=O)CCc4cccc(OC)c4OC)s3)s2)c1OC [Compound 106, N,N′-(5,5′-(butane-1,4-diyl)bis(1,3,4-thiadiazole-5,2-diyl))bis(3-(2,3-dimethoxyphenyl)propanamide)]
500 to 1000 | O=C(CCCC1CCCCC1)Nc1nnc(CCCCc2nnc(NC(=O)CCCC3CCCCC3)s2)s1 [Compound 80, N,N′-(5,5′-(butane-1,4-diyl)bis(1,3,4-thiadiazole-5,2-diyl))bis(4-cyclohexylbutanamide)]
500 to 1000 | O=C(Nc1nnc(CCCCc2nnc(NC(=O)C3CCCC3)s2)s1)C1CCCC1 [Compound 95, N,N′-(5,5′-(butane-1,4-diyl)bis(1,3,4-thiadiazole-5,2-diyl))dicyclopentanecarboxamide]
100 to 500 | O=C(C/C=C/c1ccccc1)Nc1nnc(CCCCc2nnc(NC(=O)C/C=C/c3ccccc3)s2)s1 [Compound 81, (3E,3′E)-N,N′-(5,5′-(butane-1,4-diyl)bis(1,3,4-thiadiazole-5,2-diyl))bis(4-phenylbut-3-enamide)]
500 to 1000 | CC(C)CC(=O)Nc1nnc(CCCCc2nnc(NC(=O)CC(C)C)s2)s1 [Compound 115, N,N′-(5,5′-(butane-1,4-diyl)bis(1,3,4-thiadiazole-5,2-diyl))bis(3-methylbutanamide)]
500 to 1000 | CC(C)OC(=O)Nc1nnc(CCS(=O)(=O)CCc2nnc(NC(=O)OC(C)C)s2)s1 [Compound 23, Diisopropyl (5,5′-(sulfonylbis(ethane-2,1-diyl))bis(1,3,4-thiadiazole-5,2-diyl))dicarbamate]
100 to 500 | O=C(Cc1ccccc1)Nc1nnc(CCS(=O)(=O)Cc2nnc(NC(=O)Cc3ccccc3)s2)s1 [Compound 56]
1000 to 10000 | O=C(Cc1ccccn1)Nc1nnc(CCC(O)CCc2nnc(NC(=O)Cc3ccccn3)s2)s1 [Compound 108]
1000 to 10000 | O=C(CCN1CCCCC1)Nc1nnc(CCCCc2nnc(NC(=O)CCN3CCCCC3)s2)s1 [Compound 59]
500 to 1000 | O=C(Cc1ccc(Cl)nc1)Nc1nnc(CCCCc2nnc(NC(=O)Cc3ccc(Cl)nc3)s2)s1 [Compound 78, N,N′-(5,5′-(butane-1,4-diyl)bis(1,3,4-thiadiazole-5,2-diyl))bis(2-(6-chloropyridin-3-yl)acetamide)]
100 to 500 | O=C(CC1NC(=O)NC1=O)Nc1nnc(CCCCc2nnc(NC(=O)CC3NC(=O)NC3=O)s2)s1 (centres unmarked) [Compound 89, N,N′-(5,5′-(butane-1,4-diyl)bis(1,3,4-thiadiazole-5,2-diyl))bis(2-(2,5-dioxoimidazolidin-4-yl)acetamide)]
